Read-outs that look alike come from different tables or passages of the source.
How the values were obtained:
[1] = tested on: Hedgehog pathway activation (GLi-luciferase reporter) in Shh Light II reporter cells; assay: Hedgehog pathway activation on Shh Light II reporter cells measured by luciferase activity; format: cell-based; settings: Mus musculus, Shh Light II
In short: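 Shh Light II reporter cells carrying a hedgehog-responsive GLi-luciferase reporter were stimulated either with 500 nM SAG, a direct Smoothened agonist, or with conditioned media containing human Sonic Hedgehog (hShh). Test compounds were evaluated for blocking this pathway activation, quantified by luciferase activity. Cell viability was monitored in parallel with the Celltiter-Blue® assay.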

[2] = tested on: Hedgehog pathway activation on 10T1/2/Smo#3 cells (C3H10T1/2 cells transfected with human Smoothened receptor); assay: Hedgehog pathway activation on 10T1/2/Smo#3 cells measured by ALP activity; format: cell-based; settings: Mus musculus, C3H 10T1/2, 10T1/2/Smo#3 cells
In short: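 C3H10T1/2 cells stably expressing human Smoothened were activated with hShh-conditioned medium (10-20%) or 500 nM SAG, with test compounds present. Pathway block read as inhibited ALP activity (4-methylumbelliferyl phosphate fluorescence); viability checked by CellTiter-Blue. IC50 values reported.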

[3] = hShh activation, read-out: Shh (IC50, inhibition of Hedgehog pathway activation)
[4] = measured by ALP activity, read-out: ALP (IC50, inhibition of Hedgehog pathway activation)

| Structure (SMILES) | IC50 [1, 3] [nM] | IC50 [2, 4] [nM] | IC50 ([1]; SAG activation (500 nM SAG), read-out: Shh Light II luciferase activity (SAG activation)) [nM] | IC50 ([1]; hShh activation, read-out: Shh Light II luciferase activity (hShh activation)) [nM] | IC50 ([2]; hShh activation, ALP activity, read-out: 10T1/2/Smo#3 ALP activity (hShh Activation)) [nM] |
| --- | --- | --- | --- | --- | --- |
| Cc1ccccc1-c1ccc2nc(-c3ccc(C(F)(F)F)c(NC(=O)C(C)(C)C)c3)cn2n1 [Example 241, N-(5-(6-o-tolylimidazo[1,2-b]pyridazin-2-yl)-2-(trifluoromethyl)phenyl)pivalamide] | 208 | 96 | – | – | – |
| CC(C)(C)C(=O)Nc1cc(-c2cn3nc(-c4ccc(O)cc4)ccc3n2)ccc1C(F)(F)F [Example 243, N-(5-(6-(4-hydroxyphenyl)imidazo[1,2-b]pyridazin-2-yl)-2-(trifluoromethyl)phenyl)pivalamide] | 306 | 295 | – | – | – |
| Cc1c(-c2ccccc2)nc2ccc(N3CCN(C(=O)CC(C)(C)C)CC3)nn12 [Example 157, 3,3-dimethyl-1-(4-(3-methyl-2-phenylimidazo[1,2-b]pyridazin-6-yl)piperazin-1-yl)butan-1-one] | 1950 | > 10000 | – | – | – |
| CCc1ccc(-c2cn3nc(-c4ccccc4F)ccc3n2)cc1NC(=O)C(C)(C)C [Example 295, N-(2-ethyl-5-(6-(2-fluorophenyl)imidazo[1,2-b]pyridazin-2-yl)phenyl)pivalamide] | 320 | 326 | 300 to 3000 | < 300 | < 300 |
| COc1ccc2nc(-c3ccc(C)c(NC(=O)c4ccccc4C(F)(F)F)c3)cn2n1 [Example 99, N-(5-(6-methoxyimidazo[1,2-b]pyridazin-2-yl)-2-methylphenyl)-2-(trifluoromethyl)benzamide] | > 10000 | 3690 | – | – | – |

Further molecules by falling IC50 [1, 3], results first:

| IC50 [1, 3] [nM] | IC50 [2, 4] [nM] | IC50 ([1]; SAG activation (500 nM SAG), read-out: Shh Light II luciferase activity (SAG activation)) [nM] | IC50 ([1]; hShh activation, read-out: Shh Light II luciferase activity (hShh activation)) [nM] | IC50 ([2]; hShh activation, ALP activity, read-out: 10T1/2/Smo#3 ALP activity (hShh Activation)) [nM] | Structure (SMILES) |
| --- | --- | --- | --- | --- | --- |
| 339 | 174 | – | – | – | CCc1ccc(-c2cn3nc(-c4cccnc4C(F)(F)F)ccc3n2)cc1NC(=O)N1CCCC1 [Example 694, N-(2-ethyl-5-(6-(2-(trifluoromethyl)pyridin-3-yl)imidazo[1,2-b]pyridazin-2-yl)phenyl)pyrrolidine-1-carboxamide] |
| 332 | 554 | – | – | – | CC(C)(C)C(=O)Nc1cc(-c2cn3nc(N4CCCC(CO)C4)ccc3n2)ccc1C(F)(F)F (centres unmarked) [Example 354, N-(5-(6-(3-(hydroxymethyl)piperidin-1-yl)imidazo[1,2-b]pyridazin-2-yl)-2-(trifluoromethyl)phenyl)pivalamide] |
| 316 | 372 | – | – | – | CC(C)(C)C(=O)Nc1cc(-c2cn3nc(OC4CCC(O)CC4)ccc3n2)ccc1C(F)(F)F (centres unmarked) [Example 375, N-(5-(6-(4-hydroxycyclohexyloxy)imidazo[1,2-b]pyridazin-2-yl)-2-(trifluoromethyl)phenyl)pivalamide] |
| 297 | 325 | – | – | – | Cc1ccc(-c2cn3nc(-c4cccc(C(F)(F)F)c4)ccc3n2)cc1NC(=O)C(C)(C)C [Example 260, N-(2-methyl-5-(6-(3-(trifluoromethyl)phenyl)imidazo[1,2-b]pyridazin-2-yl)phenyl)pivalamide] |
| 228 | 764 | – | – | – | O=C(Nc1cc(-c2cn3nc(-c4cccnc4C(F)(F)F)ccc3n2)ccc1Cl)NC1CC1 [Example 654, 1-(2-chloro-5-(6-(2-(trifluoromethyl)pyridin-3-yl)imidazo[1,2-b]pyridazin-2-yl)phenyl)-3-cyclopropylurea] |
| 146 | 23 | – | – | – | CC(C)(C)C(=O)Nc1cc(-c2cn3nc(N4CC[C@@H](O)C4)ccc3n2)ccc1Cl [Example 643, (R)—N-(2-chloro-5-(6-(3-hydroxypyrrolidin-1-yl)imidazo[1,2-b]pyridazin-2-yl)phenyl)pivalamide] |
| 74 | 56 | – | – | – | Cc1ccc(-c2nc3ccc(-c4cccnc4C(F)(F)F)nn3c2C)cc1NC(=O)C(C)(C)C [Example 353, N-(2-methyl-5-(3-methyl-6-(2-(trifluoromethyl)pyridin-3-yl)imidazo[1,2-b]pyridazin-2-yl)phenyl)pivalamide] |
| 18 | 94 | – | – | – | Cc1ccc(-c2cn3nc(-c4cc(C#N)ccc4C(F)(F)F)ccc3n2)cc1NC(=O)C(C)(C)C [compound 596] |

— US8871767B2, “2-arylimidazo[1,2-B]pyridazine, 2-phenylimidazo[1,2-A]pyridine, and 2-phenylimidazo[1,2-A]pyrazine derivatives” (Hengrui (USA) Ltd., priority 2010, dated 2014)
